Laboratory results published in ChEMBL document CHEMBL1201862, “PubChem BioAssay data set” (2004).
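Dose response: 5 concentrations. Exposure: 48 h. Format: 96-well plates. Endpoint: linear interpolation; highest concentration if not reached. Abbreviation: GI50, concentration required for 50% inhibition of growth.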 Calls of active or inactive are those of the source. No stated cut-off is given here; in the data, active = GI50 up to about 1.1 µM and inactive = higher.

Columns and labels:
Test in all cases: NCI tumour cell line growth inhibition, 48 h
[1] = tested on: 786-0
[2] = tested on: A498
[3] = tested on: A549
[4] = tested on: ACHN
[5] = tested on: CAKI-1
[6] = tested on: CCRF-CEM
[7] = tested on: COLO 205
[8] = tested on: DLD-1
[9] = tested on: DMS-114
[10] = tested on: DMS-273
[11] = tested on: EKVX
[12] = tested on: HCC 2998
[13] = tested on: HCT-116
[14] = tested on: HCT-15
[15] = tested on: HL-60
[16] = tested on: HOP-18
[17] = tested on: HOP-62
[18] = tested on: HOP-92
[19] = tested on: HT-29
[20] = tested on: IGROV-1
[21] = tested on: K562
[22] = tested on: KM-20L2
[23] = tested on: KM12
[24] = tested on: LOX IMVI
[25] = tested on: LXFL 529
[26] = tested on: M14
[27] = tested on: M19-MEL
[28] = tested on: MOLT-4
[29] = tested on: Malme-3M
[30] = tested on: NCI-H226
[31] = tested on: NCI-H23
[32] = tested on: NCI-H460
[33] = tested on: OVCAR-3
[34] = tested on: OVCAR-4
[35] = tested on: OVCAR-5
[36] = tested on: RPMI-8226
[37] = tested on: RXF 393
[38] = tested on: RXF 631
[39] = tested on: SF-268
[40] = tested on: SF-295
[41] = tested on: SF-539
[42] = tested on: SK-MEL-28
[43] = tested on: SK-MEL-2
[44] = tested on: SK-MEL-5
[45] = tested on: SK-OV-3
[46] = tested on: SN12C
[47] = tested on: SNB-19
[48] = tested on: SNB-75
[49] = tested on: SNB-78
[50] = tested on: SR
[51] = tested on: SW-620
[52] = tested on: TK-10
[53] = tested on: U-251
[54] = tested on: UACC-257
[55] = tested on: UACC-62
[56] = tested on: UO-31
[57] = tested on: NCI-H522
[58] = tested on: OVCAR-8
[59] = tested on: XF498

SMILES: N#CC(C(=O)C(=O)Nc1ccc(Cl)cc1)c1ccccc1 (stereo not given)
- GI50 [1]: > 100 µM (inactive)
- GI50 [2]: > 100 µM (inactive)
- GI50 [3]: > 100 µM (inactive)
- GI50 [4]: > 100 µM (inactive)
- GI50 [5]: > 100 µM (inactive)
- GI50 [6]: > 100 µM (inactive)
- GI50 [7]: 93.1 µM (inactive)
- GI50 [8]: > 100 µM (inactive)
- GI50 [9]: > 100 µM (inactive)
- GI50 [10]: > 100 µM (inactive)
- GI50 [11]: > 100 µM (inactive)
- GI50 [12]: > 100 µM (inactive)
- GI50 [13]: > 100 µM (inactive)
- GI50 [14]: > 100 µM
- GI50 [15]: > 100 µM (inactive)
- GI50 [16]: > 100 µM (inactive)
- GI50 [17]: 85.1 µM (inactive)
- GI50 [18]: > 100 µM (inactive)
- GI50 [19]: > 100 µM (inactive)
- GI50 [20]: > 100 µM (inactive)
- GI50 [21]: > 100 µM (inactive)
- GI50 [22]: > 100 µM (inactive)
- GI50 [23]: > 100 µM (inactive)
- GI50 [24]: > 100 µM (inactive)
- GI50 [25]: > 100 µM (inactive)
- GI50 [26]: > 100 µM (inactive)
- GI50 [27]: > 100 µM (inactive)
- GI50 [28]: > 100 µM (inactive)
- GI50 [29]: > 100 µM (inactive)
- GI50 [30]: > 100 µM (inactive)
- GI50 [31]: > 100 µM (inactive)
- GI50 [32]: > 100 µM (inactive)
- GI50 [33]: > 100 µM (inactive)
- GI50 [34]: > 100 µM (inactive)
- GI50 [35]: > 100 µM (inactive)
- GI50 [36]: > 100 µM (inactive)
- GI50 [37]: > 100 µM (inactive)
- GI50 [38]: > 100 µM (inactive)
- GI50 [39]: > 100 µM (inactive)
- GI50 [40]: > 100 µM (inactive)
- GI50 [41]: > 100 µM (inactive)
- GI50 [42]: > 100 µM (inactive)
- GI50 [43]: > 100 µM (inactive)
- GI50 [44]: > 100 µM (inactive)
- GI50 [45]: > 100 µM (inactive)
- GI50 [46]: > 100 µM (inactive)
- GI50 [47]: > 100 µM (inactive)
- GI50 [48]: > 100 µM (inactive)
- GI50 [49]: > 100 µM (inactive)
- GI50 [50]: > 100 µM (inactive)
- GI50 [51]: > 100 µM (inactive)
- GI50 [52]: > 100 µM (inactive)
- GI50 [53]: > 100 µM (inactive)
- GI50 [54]: > 100 µM (inactive)
- GI50 [55]: 22.6 µM (inactive)
- GI50 [56]: > 100 µM (inactive)

SMILES: COC(=O)c1nc(N)nc(C(=O)OC)c1C(=O)c1ccccc1
- GI50 [1]: > 100 µM (inactive)
- GI50 [2]: > 100 µM (inactive)
- GI50 [3]: > 100 µM (inactive)
- GI50 [4]: > 100 µM (inactive)
- GI50 [6]: > 100 µM (inactive)
- GI50 [8]: > 100 µM (inactive)
- GI50 [9]: > 100 µM (inactive)
- GI50 [11]: > 100 µM (inactive)
- GI50 [12]: > 100 µM (inactive)
- GI50 [13]: > 100 µM (inactive)
- GI50 [14]: > 100 µM
- GI50 [15]: > 100 µM (inactive)
- GI50 [16]: > 100 µM (inactive)
- GI50 [18]: 96.8 µM (inactive)
- GI50 [19]: > 100 µM (inactive)
- GI50 [20]: > 100 µM (inactive)
- GI50 [21]: > 100 µM (inactive)
- GI50 [22]: > 100 µM (inactive)
- GI50 [23]: > 100 µM (inactive)
- GI50 [24]: > 100 µM (inactive)
- GI50 [25]: > 100 µM (inactive)
- GI50 [26]: > 100 µM (inactive)
- GI50 [27]: > 100 µM (inactive)
- GI50 [28]: > 100 µM (inactive)
- GI50 [29]: > 100 µM (inactive)
- GI50 [31]: > 100 µM (inactive)
- GI50 [32]: > 100 µM (inactive)
- GI50 [57]: > 100 µM (inactive)
- GI50 [33]: > 100 µM (inactive)
- GI50 [35]: > 100 µM (inactive)
- GI50 [58]: > 100 µM (inactive)
- GI50 [36]: > 100 µM (inactive)
- GI50 [37]: > 100 µM (inactive)
- GI50 [38]: > 100 µM (inactive)
- GI50 [39]: > 100 µM (inactive)
- GI50 [40]: > 100 µM (inactive)
- GI50 [41]: > 100 µM (inactive)
- GI50 [42]: > 100 µM (inactive)
- GI50 [43]: > 100 µM (inactive)
- GI50 [44]: > 100 µM (inactive)
- GI50 [45]: > 100 µM (inactive)
- GI50 [46]: > 100 µM (inactive)
- GI50 [47]: > 100 µM (inactive)
- GI50 [48]: 54.1 µM (inactive)
- GI50 [50]: > 100 µM (inactive)
- GI50 [51]: > 100 µM (inactive)
- GI50 [52]: > 100 µM (inactive)
- GI50 [53]: > 100 µM (inactive)
- GI50 [54]: > 100 µM (inactive)
- GI50 [55]: > 100 µM (inactive)
- GI50 [56]: > 100 µM (inactive)
- GI50 [59]: > 100 µM (inactive)

SMILES: CC1=C2O[B-](c3ccccc3)(c3ccccc3)[O+]=C2C=CN1
- GI50 [1]: 46.2 µM (inactive)
- GI50 [3]: 58.3 µM (inactive)
- GI50 [4]: 27.9 µM (inactive)
- GI50 [5]: 21.8 µM (inactive)
- GI50 [6]: 34.8 µM (inactive)
- GI50 [7]: 45.1 µM (inactive)
- GI50 [8]: 33.4 µM (inactive)
- GI50 [9]: 38.7 µM (inactive)
- GI50 [10]: 45.9 µM (inactive)
- GI50 [11]: 28.8 µM (inactive)
- GI50 [13]: 42.6 µM (inactive)
- GI50 [14]: 32.3 µM
- GI50 [15]: 27.4 µM (inactive)
- GI50 [17]: 25.9 µM (inactive)
- GI50 [18]: 22.1 µM (inactive)
- GI50 [19]: 54.7 µM (inactive)
- GI50 [20]: 61.7 µM (inactive)
- GI50 [21]: 40.4 µM (inactive)
- GI50 [22]: 62.1 µM (inactive)
- GI50 [24]: 52.4 µM (inactive)
- GI50 [26]: 40 µM (inactive)
- GI50 [27]: 62.4 µM (inactive)
- GI50 [28]: 20.2 µM (inactive)
- GI50 [29]: 34.6 µM (inactive)
- GI50 [31]: 36.6 µM (inactive)
- GI50 [32]: 49.9 µM (inactive)
- GI50 [33]: 2 µM (inactive)
- GI50 [34]: 64.7 µM (inactive)
- GI50 [58]: 41.2 µM (inactive)
- GI50 [36]: 28.3 µM (inactive)
- GI50 [37]: 26.4 µM (inactive)
- GI50 [38]: 44.9 µM (inactive)
- GI50 [40]: 48.2 µM (inactive)
- GI50 [42]: 29.6 µM (inactive)
- GI50 [44]: 21.5 µM (inactive)
- GI50 [45]: > 100 µM (inactive)
- GI50 [46]: 45.7 µM (inactive)
- GI50 [47]: 37.3 µM (inactive)
- GI50 [48]: 22.8 µM (inactive)
- GI50 [49]: 51.8 µM (inactive)
- GI50 [51]: 44.9 µM (inactive)
- GI50 [52]: 22.6 µM (inactive)
- GI50 [53]: 55.6 µM (inactive)
- GI50 [54]: 27.7 µM (inactive)
- GI50 [55]: 21.2 µM (inactive)
- GI50 [56]: 4.46 µM (inactive)
- GI50 [59]: 12.5 µM (inactive)
